The IC50 is the concentration that inhibits the measured activity by half. A low value points to higher potency.

The target in the experiment is T1, RORc ligand binding domain (Homo sapiens, UniProt P51449).
T1 sequence (P51449 269-508 limits assumed): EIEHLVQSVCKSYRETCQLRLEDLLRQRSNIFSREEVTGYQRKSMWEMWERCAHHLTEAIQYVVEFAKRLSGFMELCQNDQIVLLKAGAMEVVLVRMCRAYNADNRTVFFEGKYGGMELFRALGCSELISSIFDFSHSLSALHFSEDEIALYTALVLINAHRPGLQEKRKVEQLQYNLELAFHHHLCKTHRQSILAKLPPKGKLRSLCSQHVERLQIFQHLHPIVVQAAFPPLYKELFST
The experiment is described as follows: In Vitro RORc Ligand Binding Assay. The note with it: RORc IC50, radioligand 25-[3H]hydroxycholesterol 6 nM; 0.6 ug/mL RORc receptor; 3 h at 25° C.

In the case of `CC1(C)[C@H]2CC[C@]1(c1cncc(NS(C)(=O)=O)n1)c1nnc(-c3c(F)cccc3F)cc12` [Example 34, N-(6-((5R,8S)-3-(2,6-difluorophenyl)-9,9-dimethyl-5,6,7,8-tetrahydro-5,8-methanocinnolin-8-yl)pyrazin-2-yl)methanesulfonamide], the IC50 turned out to be 75.9 nM. The same measure for `Cc1nnc(-c2cncc([C@@]34CC[C@@H](c5cc(-c6c(F)cccc6F)nnc53)C4(C)C)n2)o1` [Example 35, 2-(6-((5R,8S)-3-(2,6-difluorophenyl)-9,9-dimethyl-5,6,7,8-tetrahydro-5,8-methanocinnolin-8-yl)pyrazin-2-yl)-5-methyl-1,3,4-oxadiazole]: 21.7 nM. Take `COCCNC(=O)c1cncc([C@@]23CC[C@@H](c4cc(-c5c(F)cccc5F)nnc42)C3(C)C)n1` [Example 36, 6-((5R,8S)-3-(2,6-difluorophenyl)-9,9-dimethyl-5,6,7,8-tetrahydro-5,8-methanocinnolin-8-yl)-N-(2-methoxyethyl)pyrazine-2-carboxamide]: the IC50 worked out at 37.1 nM. The same measure for `CC1(C)[C@H]2CC[C@]1(c1cccc(C(=O)N3CCOCC3)n1)c1nnc(-c3c(F)cccc3F)cc12` [Example 37, (6-((5R,8S)-3-(2,6-difluorophenyl)-9,9-dimethyl-5,6,7,8-tetrahydro-5,8-methanocinnolin-8-yl)pyridin-2-yl)(morpholino)methanone]: 48.2 nM; for `CN(CCO)C(=O)c1cccc([C@@]23CC[C@@H](c4cc(-c5c(F)cccc5F)nnc42)C3(C)C)n1` [Example 38, 6-((5R,8S)-3-(2,6-difluorophenyl)-9,9-dimethyl-5,6,7,8-tetrahydro-5,8-methanocinnolin-8-yl)-N-(2-hydroxyethyl)-N-methylpicolinamide]: 37.7 nM.

The compound `COCCNC(=O)c1cccc([C@@]23CC[C@@H](c4cc(-c5c(F)cccc5F)nnc42)C3(C)C)n1` [Example 39, 6-((5R,8S)-3-(2,6-difluorophenyl)-9,9-dimethyl-5,6,7,8-tetrahydro-5,8-methanocinnolin-8-yl)-N-(2-methoxyethyl)picolinamide] came in with an IC50 of 11.6 nM. As for `CC1(NC(=O)c2cccc([C@@]34CC[C@@H](c5cc(-c6c(F)cccc6F)nnc53)C4(C)C)n2)CC1` [Example 40, 6-((5R,8S)-3-(2,6-difluorophenyl)-9,9-dimethyl-5,6,7,8-tetrahydro-5,8-methanocinnolin-8-yl)-N-(1-methylcyclopropyl)picolinamide], the figure is 9.9 nM. The same measure for `CC1(C)[C@H]2CC[C@]1(c1cncc(C(=O)NCCO)n1)c1nnc(-c3c(F)cccc3F)cc12` [Example 41, 6-((5R,8S)-3-(2,6-difluorophenyl)-9,9-dimethyl-5,6,7,8-tetrahydro-5,8-methanocinnolin-8-yl)-N-(2-hydroxyethyl)pyrazine-2-carboxamide]: 25.6 nM; for `CC1(C)[C@H]2CC[C@]1(c1cc(C#N)ccn1)c1nnc(-c3c(F)cccc3F)cc12` [Example 42]: 12.1 nM; for `CC1(C)[C@H]2CC[C@]1(c1nccc(C#N)n1)c1nnc(-c3c(F)cccc3F)cc12` [Example 43, 2-((5R,8R)-3-(2,6-difluorophenyl)-9,9-dimethyl-5,6,7,8-tetrahydro-5,8-methanocinnolin-8-yl)pyrimidine-4-carbonitrile]: 27 nM. Compound `CONC(=O)c1cccc([C@@]23CC[C@@H](c4cc(-c5c(F)cccc5F)nnc42)C3(C)C)n1` [Example 44, 6-((5R,8S)-3-(2,6-difluorophenyl)-9,9-dimethyl-5,6,7,8-tetrahydro-5,8-methanocinnolin-8-yl)-N-methoxypicolinamide] yielded an IC50 of 14.9 nM. The compound `CC1(C)[C@H]2CC[C@]1(c1cccc(C(N)=O)n1)c1nnc(-c3c(F)cccc3F)cc12` [Example 45, 6-((5R,8S)-3-(2,6-difluorophenyl)-9,9-dimethyl-5,6,7,8-tetrahydro-5,8-methanocinnolin-8-yl)picolinamide] displayed an IC50 of 8.66 nM. Regarding `CC1(C)[C@H]2CC[C@]1(c1nccc(C(N)=O)n1)c1nnc(-c3c(F)cccc3F)cc12` [Example 46, 2-((5R,8R)-3-(2,6-difluorophenyl)-9,9-dimethyl-5,6,7,8-tetrahydro-5,8-methanocinnolin-8-yl)pyrimidine-4-carboxamide], the IC50 turned out to be 43.2 nM. The same measure for `CNC(=O)c1ccnc([C@@]23CC[C@@H](c4cc(-c5c(F)cccc5F)nnc42)C3(C)C)n1` [Example 47, 2-((5R,8R)-3-(2,6-difluorophenyl)-9,9-dimethyl-5,6,7,8-tetrahydro-5,8-methanocinnolin-8-yl)-N-methylpyrimidine-4-carboxamide]: 58.3 nM. As for `CC1(C)[C@@H]2CC[C@@]1(c1cccc(C(N)=O)n1)c1nnc(-c3c(F)cccc3F)cc12` [Example 48, 6-((5S,8R)-3-(2,6-difluorophenyl)-9,9-dimethyl-5,6,7,8-tetrahydro-5,8-methanocinnolin-8-yl)picolinamide], the IC50 was determined as 15.6 nM.

`C[C@@H](O)CNC(=O)c1cncc([C@@]23CC[C@@H](c4cc(-c5c(F)cccc5F)nnc42)C3(C)C)n1` [Example 49, 6-((5R,8S)-3-(2,6-difluorophenyl)-9,9-dimethyl-5,6,7,8-tetrahydro-5,8-methanocinnolin-8-yl)-N-((R)-2-hydroxypropyl)pyrazine-2-carboxamide]: the IC50 is 40.9 nM.

For `C[C@H](O)CNC(=O)c1cncc([C@@]23CC[C@@H](c4cc(-c5c(F)cccc5F)nnc42)C3(C)C)n1` [Example 50, 6-((5R,8S)-3-(2,6-difluorophenyl)-9,9-dimethyl-5,6,7,8-tetrahydro-5,8-methanocinnolin-8-yl)-N-((S)-2-hydroxypropyl)pyrazine-2-carboxamide], the IC50 was 31.7 nM. Turning to `C[C@H](CO)NC(=O)c1cncc([C@@]23CC[C@@H](c4cc(-c5c(F)cccc5F)nnc42)C3(C)C)n1` [Example 51, 6-((5R,8S)-3-(2,6-difluorophenyl)-9,9-dimethyl-5,6,7,8-tetrahydro-5,8-methanocinnolin-8-yl)-N-((R)-1-hydroxypropan-2-yl)pyrazine-2-carboxamide], the concentration for half-maximal inhibition (IC50) came out at 59 nM. Compound `C[C@@H](CO)NC(=O)c1cncc([C@@]23CC[C@@H](c4cc(-c5c(F)cccc5F)nnc42)C3(C)C)n1` [Example 52, 6-((5R,8S)-3-(2,6-difluorophenyl)-9,9-dimethyl-5,6,7,8-tetrahydro-5,8-methanocinnolin-8-yl)-N-((S)-1-hydroxypropan-2-yl)pyrazine-2-carboxamide] displayed an IC50 of 38 nM. `CC1(C)[C@H]2CC[C@]1(c1cc(C(=O)O)ccn1)c1nnc(-c3c(F)cccc3F)cc12` [Example 53] registered an IC50 of 475 nM. Turning to `C[C@H](CO)NC(=O)c1cccc([C@@]23CC[C@@H](c4cc(-c5c(F)cccc5F)nnc42)C3(C)C)n1` [Example 54, 6-((5R,8S)-3-(2,6-difluorophenyl)-9,9-dimethyl-5,6,7,8-tetrahydro-5,8-methanocinnolin-8-yl)-N-((R)-1-hydroxypropan-2-yl)picolinamide], the IC50 amounted to 29.5 nM. The same measure for `C[C@@H](CO)NC(=O)c1cccc([C@@]23CC[C@@H](c4cc(-c5c(F)cccc5F)nnc42)C3(C)C)n1` [Example 55, 6-((5R,8S)-3-(2,6-difluorophenyl)-9,9-dimethyl-5,6,7,8-tetrahydro-5,8-methanocinnolin-8-yl)-N-((S)-1-hydroxypropan-2-yl)picolinamide]: 21.4 nM. Consider `CC1(C)[C@H]2CC[C@]1(c1cccc(C(=O)NCCO)n1)c1nnc(-c3c(F)cccc3F)cc12` [Example 56, 6-((5R,8S)-3-(2,6-difluorophenyl)-9,9-dimethyl-5,6,7,8-tetrahydro-5,8-methanocinnolin-8-yl)-N-(2-hydroxyethyl)picolinamide], for which the IC50 is 35.5 nM. Turning to `CC1(C)[C@H]2CC[C@]1(c1cccc(C(=O)N3CCS(=O)(=O)CC3)n1)c1nnc(-c3c(F)cccc3F)cc12` [Example 57, (6-((5R,8S)-3-(2,6-difluorophenyl)-9,9-dimethyl-5,6,7,8-tetrahydro-5,8-methanocinnolin-8-yl)pyridin-2-yl)(1,1-dioxidothiomorpholino)methanone], the half-inhibitory concentration (IC50) was found to be 71.1 nM. The compound `CC1(C)[C@@H]2CC[C@@]1(c1cncc(C(N)=O)n1)c1nnc(-c3c(F)cccc3F)cc12` [Example 58, 6-((5S,8R)-3-(2,6-difluorophenyl)-9,9-dimethyl-5,6,7,8-tetrahydro-5,8-methanocinnolin-8-yl)pyrazine-2-carboxamide] yielded an IC50 of 31.4 nM. The same measure for `CC1(C)[C@@H]2CC[C@@]1(c1cccc(C#N)n1)c1nnc(-c3c(F)cccc3F)cc12` [Example 59, 6-((5S,8R)-3-(2,6-difluorophenyl)-9,9-dimethyl-5,6,7,8-tetrahydro-5,8-methanocinnolin-8-yl)picolinonitrile]: 15.9 nM; for `CC1(C)[C@H]2CC[C@]1(c1cccc(C(=O)NC3COC3)n1)c1nnc(-c3c(F)cccc3F)cc12` [Example 60, 6-((5R,8S)-3-(2,6-difluorophenyl)-9,9-dimethyl-5,6,7,8-tetrahydro-5,8-methanocinnolin-8-yl)-N-(oxetan-3-yl)picolinamide]: 13.6 nM. The compound `C[C@H](O)CNC(=O)c1cccc([C@@]23CC[C@@H](c4cc(-c5c(F)cccc5F)nnc42)C3(C)C)n1` [Example 61, 6-((5R,8S)-3-(2,6-difluorophenyl)-9,9-dimethyl-5,6,7,8-tetrahydro-5,8-methanocinnolin-8-yl)-N-((S)-2-hydroxypropyl)picolinamide] had an IC50 of 34.8 nM. As for `C[C@@H](O)CNC(=O)c1cccc([C@@]23CC[C@@H](c4cc(-c5c(F)cccc5F)nnc42)C3(C)C)n1` [Example 62, 6-((5R,8S)-3-(2,6-difluorophenyl)-9,9-dimethyl-5,6,7,8-tetrahydro-5,8-methanocinnolin-8-yl)-N-((R)-2-hydroxypropyl)picolinamide], the figure is 28.8 nM.
